Test results from the NIST ThermoML archive (doi:10.1016/j.tca.2015.01.003).
± gives the expanded uncertainty stated by the source.

Assay: wn = mass fraction of the nth substance listed
Details: 288.15 K, 100 kPa, Liquid, Vibrating tube method

Row | SMILES | mass density (w1 = 0.0924) [kg/m3] | mass density (w1 = 0.2601) [kg/m3]
1 | O=S(=O)([O-])[O-].[K+].[K+] [potassium sulfate] + O | 1077.03 ± 1.2 | 
2 | O=S(=O)([O-])[O-].[Li+].[Li+] [lithium sulfate] + O |  | 1237.48 ± 1.6
